Publication PMC12713470, “Design and Synthesis of Novel Chalcone Derivatives Targeting Bladder and Liver Cancer: Cytotoxicity Evaluation and Preliminary Mechanistic Studies” (ACS Omega, 2025)

Tests used:
[1] = system: T24: human urinary bladder carcinoma cells; assay: MTT cytotoxicity assay on T24 cells; type: cell-based
Method: (§1) Cytotoxicity was determined using the MTT colorimetric assay, and half-maximal inhibitory concentrations (IC50, μM) were obtained for all cell lines (Table ). The selectivity index (SI) was calculated as the ratio of IC50 MRC-5/IC50 cancer cell line. Doxorubicin was employed as a positive control due to its broad-spectrum clinical use, either alone or in combination, against hepatocellular, ovarian, cervical, and bladder cancers. −
(§2) In vitro biological assays were performed by using five human cell lines for cytotoxicity evaluation. HepG2 cells (ATCC HB-8065), derived from a human hepatocellular carcinoma of the liver (person), were cultured in Dulbecco’s modified Eagle medium (DMEM) supplemented with 5% fetal bovine serum (FBS), penicillin/streptomycin (100 IU/mL), and amphotericin B (5 μg/mL), in a humidified incubator with 5% CO2 at 37 °C. These cells were plated at a concentration of 2.0 × 10^4 cells/well in 96-well microplates. MRC-5 cells (ATCC CCL-171), derived from human lung fibroblasts of a […] fetus, were cultured under the same conditions and plated at 1.0 × 10^4 cells/well. T24 cells (ATCC HTB-4), established from a transitional cell carcinoma of the bladder (person), were also cultured under identical conditions and plated at a density of 1.0 × 10^4 cells/well. TOV-21G cells (ATCC CRL-11730), derived from a primary malignant ovarian adenocarcinoma (person), were maintained in DMEM with the same supplementation and environmental conditions and plated at 5.0 × 10^4 cells/well. […]
(§3) HeLa, HepG2, MRC-5, T24, and TOV-21G cells were suspended in a culture medium supplemented with 5% fetal bovine serum (FBS) and seeded into 96-well microplates. The plates were incubated under a humidified atmosphere containing 5% CO2 at 37 °C for 24 h, allowing for adherence and monolayer formation. , Eight serial dilutions of the test samples, previously solubilized in dimethyl sulfoxide (DMSO), were prepared in DMEM supplemented with 1% FBS, covering a concentration range from […], and the results were converted to […]. The volume of DMSO in each well was limited to a final concentration not exceeding 2%. Following monolayer formation, the culture medium was aspirated and replaced with 100 μL of the diluted test samples and 100 μL of DMEM containing 1% FBS. The plates were then incubated under the same atmospheric and temperature conditions.
(§4) Two hours prior to end point reading, 20 μL of MTT [3-(4,5-dimethylthiazol-2-yl)-2,5-diphenyltetrazolium bromide] solution (1.0 mg/mL in sterile phosphate-buffered saline, Sigma-Aldrich) was added to each well. The incubation period following sample addition varied according to the cell line: 24 h for MRC-5, 48 h for T24, and 72 h for HeLa, HepG2, and TOV-21G. After the appropriate incubation, absorbance was measured by using a VICTOR X3 microplate reader (PerkinElmer), and data were processed with WorkOut 2.5 software at a wavelength of 490 nm. Formazan formation, resulting from the MTT reduction by metabolically active cells, was used as an indirect measure of cell viability. The percentage of cytotoxicity was calculated using the equation % cytotoxicity = [(A – B)/A] × 100, where A is the optical density (OD4 9 0) of untreated control cells and B is the OD4 9 0 of treated cells.
(§5) Cytotoxicity was expressed as the 50% cytotoxic concentration (CC5 0), representing the concentration of sample required to reduce cell viability by 50% relative to that of the untreated control.

[2] = system: HepG2: human liver hepatocellular carcinoma cells; assay: MTT cytotoxicity assay on HepG2 cells; type: cell-based
Method: as §1, §2, §3, §4, §5

T24 cells = assay: Cell cycle progression (propidium iodide flow cytometry), T24; type: cell-based, human; details: after treatment, 48 h
Method: (§6) Cells were seeded in 12-well plates at a density of 1.0 × 10^5 cells per well and incubated for 24 h to allow adhesion. Following this initial incubation, the cells were treated with the chalcone at concentrations of 0.92, 2.15, 4.62, and 9.25 μM for an additional 48 h. After the treatment, the cells were washed, trypsinized, and collected along with the culture supernatant into Falcon tubes. The samples were then centrifuged at 1000 rpm for 10 min. After centrifugation, the supernatant was discarded, and the cell pellets were resuspended in 200 μL of propidium iodide staining solution before being transferred to cytometry tubes. These tubes were incubated on ice, in the dark, for 30 min. Flow cytometric analysis was performed on 20,000 events using a BD FACScalibur flow cytometer (BD Biosciences, Franklin Lakes, NJ, USA), and the data were analyzed using FlowJo software.

[3] = system: HeLa, HepG2, T24, and TOV-21G; assay: MTT cytotoxicity, all evaluated cancer cells (summary); type: cell-based; details: Homo sapiens, read-out: IC50 values against all evaluated cancer cells
Method: as §1
In vitro biological assays were performed by using five human cell lines for cytotoxicity evaluation. […]
as §4, with “The incubation period following sample addition varied according to the cell line: 24 h for MRC-5, 48 h for T24, and 72 h for HeLa, HepG2, and TOV-21G.” left out, “Formazan formation, resulting from the MTT reduction by metabolically active cells, was used as an indirect measure of cell viability.” left out
as §5

[4] = system: TOV-21G: human ovarian adenocarcinoma cells; assay: MTT cytotoxicity assay on TOV-21G cells; type: cell-based
Method: as §1, §2, §3, §4, §5

HepG2 cells [5] = assay: Morphology assay, HepG2; type: cell-based, human; details: 2.15-18.50 μM, 48 h
Method: For the morphology assay, 2.0 × 10^5 cells were cultured in 12-well plates for 24 h to allow adherence. After this period, the cells were treated with the chalcone at concentrations of 2.15, 4.62, 9.25, and 18.50 μM for 48 h. After treatment, the cells were examined and photographed under an inverted microscope at 200× magnification.

HepG2 cells [6] = assay: Cell cycle progression (propidium iodide flow cytometry), HepG2; type: cell-based, human
Method: as §6

[7] = all concentrations tested (0.92–4.62 μM)

Compound: CCCc1cc(/C=C/C(=O)c2ccc(C)cc2)c(OC)c(OC)c1 [compound 3, (E)-3-(2,3-Dimethoxy-5-propylphenyl)-1-(p-tolyl)-prop-2-en-1-one]
- IC50 ([1]; Homo sapiens, T-24, MTT, 48 h incubation, n = 3, NA: noncytotoxic at the concentrations tested): 5 ± 1.6 µM
- SI (T24) ([1]; IC50 MRC-5/IC50 T24): 11.1
- potency against T24 relative to hit 1 ([1]; ratio of IC50 values, 1 vs 3): more than 32 times
- IC50 ([2]; Homo sapiens, HepG2, MTT, 72 h incubation, n = 3, NA: noncytotoxic at the concentrations tested): 4.5 ± 1.2 µM
- SI (HepG2) ([2]; IC50 MRC-5/IC50 HepG2): 12.2
- cell cycle distribution, T24 (T24 cells): no difference was observed after treatment
- IC50 [3]: 3.03 to 5.92 µM
- IC50 ([4]; Homo sapiens, TOV21G, MTT, 72 h incubation, n = 3, NA: noncytotoxic at the concentrations tested): 3 ± 2.6 µM
- SI (TOV-21G) ([4]; IC50 MRC-5/IC50 TOV-21G): 18.2
- morphology, HepG2 (HepG2 cells [5]): reduction in cell density was observed
- fraction of cells in sub-G1, HepG2 (HepG2 cells [6]; 0.92–4.62 μM): remained stable
- G2/M phase, HepG2 (HepG2 cells [6]; [7]): corresponding reduction
- population of cells in the G0/G1 phase, HepG2 (HepG2 cells [6]; [7]): significant increase
